In US9999620B2, “CaMKK-β as a target for treating cancer” (Duke University, priority 2010, dated 2018):

Key:
[1] = tested on: LNCaP cells; experiment: Boyden dual chamber migration assay; assay type: cell-based, human
Description: FIG. 7. CaMKKβ activity in the androgen-mediated migration and invasion of prostate cancer cells. A, LNCaP cells were plated in 96-well plates and grown for 3 d. […] On d 10, cells were lysed and the relative number of cells was measured with the fluorescent DNA binding dye FluoReporter Blue. Each sample was performed in triplicate, and results from a representative experiment are shown. […] Cells were then dissociated and reseeded into the top chamber for a Boyden migration or Matrigel extracellular matrix invasion assay. Fresh medium with the corresponding treatments was added to the top and bottom chambers while either no chemoattractant or 5% FBS (serum) was added to the bottom chamber. After 16 h, migrated cells were fixed, stained and counted in three different microscopic fields and added together. […] C top, LNCaP cells were transfected with indicated siRNAs. […] D right, LNCaP cells stably expressing either GAL4 (control) or CaMKKβ were subjected to a migration assay as described in B using +/-5% FBS as chemoattractant. The results are expressed as mean+SE (n=3). *, significant changes from LNCaP-GAL4 cells. D left, western blot confirming CaMKKβ […]expression. FIG. 11. Androgen-mediated migration occurs through a CaMKKβ-AMPK-dependent pathway. […] Results are expressed as fold induction/phosphorylation over double vehicle-treated cells+SE (n=3). *, significant changes from vehicle-treated cells. […] Results are expressed as fold induction/phosphorylation over LNCaP-GAL4 vehicle-treated cells+SE (n=3). *, significant changes from LNCaP-GAL4 vehicle-treated cells. […] The results are expressed as mean±SE (n=2). *, P<0.05 indicates significant changes from double vehicle-treated cells. ^#, P<0.05 indicates significant decreases from vehicle (no compound C)-treated cells. […] ACC is a direct target of AMPK and thus, was used as a readout of AMPK catalytic activity. […] Results are expressed as fold induction/phosphorylation over double vehicle-treated cells+SE (n=2). *, P<0.05 indicates significant changes from double vehicle-treated cells. […]

[2] = tested on: circulating tumor cells; conditions: patients having a castration-resistant type cancer; cited from earlier work
[3] = tested on: CaMKKβ protein; experiment: Western blot of CaMKKβ protein in prostate cancer cells; assay type: cell-based, human; conditions: R1881 0.01, 0.1, 1, 10 nM, 24 h
Description: (§1) FIG. 1. Androgens increase CaMKKβ levels in an AR-dependent manner. LNCaP or VCaP cells were treated for 24 h with vehicle or increasing concentrations of the synthetic androgen R1881 (A—0.1, 1, and 10 nM; B—0.01, 0.1, 1, and 10 nM). A, after treatment, cells were lysed, and RNA was isolated and reversed transcribed. The expression of CaMKKβ was assessed using qPCR. B, after treatment, cells were subjected to western blot analysis and subsequent densitometry (top). CaMKKβ protein levels were normalized to GAPDH loading control. A and B, results are expressed as fold induction over vehicle-treated cells+SE (n=3). *, significant changes from vehicle-treated cells. C, LNCaP cells were transiently transfected with mock or Stealth siRNAs targeting a negative control (siLacZ) or CaMKKβ (#1-3). Two days later, cells were treated for 24 h+/−10 nM R1881. Whole-cell extracts were subjected to western blot analysis and densitometry (top) as described in B. *, significant changes from mock-transfected cells. D, LNCaP cells were transfected as described in C with mock or Stealth siRNAs targeting LacZ or AR and treated for 24 h. The expression of CaMKKβ was assessed as in A using qPCR.
(§2) Western blot analysis. […] For each sample, protein levels were determined by densitometry using the ImageJ software (NIH) and normalizing to indicated controls.

[4] = tested on: AR binding region ~2.3 kb upstream of the CaMKKβ transcriptional start site; experiment: Chromatin immunoprecipitation of AR at the CaMKKβ upstream region; assay type: cell-based, human; conditions: LNCaP; 10 nM R1881 for 1 or 4 h
Description: (§3) FIG. 9. Identification of the ARE that regulates CaMKKβ expression. A, LNCaP cells were pretreated for 1 h with vehicle or 1 mg/mL cycloheximide followed by vehicle or 10 nM R1881 for 24 h. CaMKKβ or CXCR4 mRNA levels were quantified using qPCR. Results are expressed as fold induction over vehicle (no R1881)-treated cells±SE (n=3). *, significant changes from vehicle-treated cells. B, LNCaP cells were treated with vehicle (V) or 10 nM R1881 for 1 or 4 h. Cross-linked chromatin was immunoprecipitated with indicated antibodies. The precipitated DNA was amplified using primers spanning a region identified using ChIP on Chip data as a potential AR-binding site (indicated in top schematic) or a distal upstream region (negative control). The results are presented as percent input±SE (n=3). *, significant changes from IgG controls. C, various enhancer luciferase reporter constructs (depicted in top model) were transfected into LNCaP cells and treated overnight+/−10 nM R1881. After treatment, cells were harvested and assayed for luciferase activity. Luciferase values were normalized to β-galactosidase control. Data are the mean relative light units (RLUs)+SEM for one representative experiment performed in triplicate (n=3). *, significant changes from vehicle-treated cells. […]

[5] = tested on: CaMKKβ mRNA; experiment: qPCR of CaMKKβ mRNA in prostate cancer cells; assay type: cell-based, human; conditions: for CaMKKβ mRNA levels: R1881 0.1, 1, 10 nM, 24 h
Description: as §1
FIG. 9. Identification of the ARE that regulates CaMKKβ expression. A, LNCaP cells were pretreated for 1 h with vehicle or 1 mg/mL cycloheximide followed by vehicle or 10 nM R1881 for 24 h. CaMKKβ or CXCR4 mRNA levels were quantified using qPCR. Results are expressed as fold induction over vehicle (no R1881)-treated cells±SE (n=3). *, significant changes from vehicle-treated cells. B, LNCaP cells were treated with vehicle (V) or 10 nM R1881 for 1 or 4 h. Cross-linked chromatin was immunoprecipitated with indicated antibodies. […]
(§4) RNA isolation, cDNA preparation, and quantitative and standard reverse transcription (RT)-PCR. RNA isolation, cDNA preparation and quantitative RT-PCR (qPCR) were performed as previously described using 36B4 as a control (12). […]

[6] = tested on: AMPK; experiment: Western blot of phospho-ACC (readout of AMPK catalytic activity); assay type: cell-based, human; conditions: LNCaP; 1 h 1, 10 or 40 mM compound C, overnight +/-10 nM R1881
Description: FIG. 13. AMPK and androgen-mediated prostate cancer cell migration. A, LNCaP cells were pretreated for 1 h with vehicle or increasing concentrations of compound C (10 or 40 mM) prior to overnight treatment+/−10 nM R1881 or 1 mM AICAR. Cells were then subjected to a migration assay as described in FIG. 7. The results are expressed as mean±SE (n=2). *, P<0.05 indicates significant changes from double vehicle-treated cells. ^#, P<0.05 indicates significant decreases from vehicle (no compound C)-treated cells. B, LNCaP cells were pretreated for 1 h with vehicle, 1, 10 or 40 mM compound C prior to overnight treatment+/−10 nM R1881. Cell lysates were then subjected to western blot analysis and subsequent densitometry (top). ACC is a direct target of AMPK and thus, was used as a readout of AMPK catalytic activity. Phospho-ACC (p-ACC) levels were normalized to total ACC. Results are expressed as fold induction/phosphorylation over double vehicle-treated cells+SE (n=2). *, P<0.05 indicates significant changes from double vehicle-treated cells. […]
as §2

[7] = tested on: CXCR4 mRNA; experiment: qPCR of CXCR4 mRNA in LNCaP cells; assay type: cell-based, human; conditions: 1 h 1 mg/mL cycloheximide, then 10 nM R1881 24 h
Description: as §3, with “control.” for “control. Data are the mean relative light units (RLUs)+SEM for one representative experiment performed in triplicate (n=3). *, significant changes from vehicle-treated cells.”
as §4

[8] = tested on: distant metastases; conditions: prostate cancer patients, clinical trials; cited from earlier work

NC(=O)c1ncn([C@@H]2O[C@H](CO)[C@@H](O)[C@H]2O)c1N [AICAR, 5-aminoimidazole-4-carboxamide 1-b-D-ribo-furanoside]
cell migration, treatment alone ([1]; overnight 1 mM AICAR, no androgen): sufficient to increase cell migration

CNC(=O)c1ccc(N2C(=S)N(c3ccc(C#N)c(C(F)(F)F)c3)C(=O)C2(C)C)cc1F [MDV3100]
number of circulating tumor cells in patients [2]: decreases the number of circulating tumor cells in approximately half of the treated patients

C[C@]1(O)CC[C@H]2[C@@H]3CCC4=CC(=O)CCC4=C3C=C[C@@]21C [R1881, Methyltrienolone]
CaMKKβ protein levels ([3]; LNCaP): dose-dependent increase | CaMKKβ protein levels ([3]; VCaP): dose-dependent increase | AR recruitment to the CaMKKβ upstream region [4]: recruited to this region of the promoter within one hour | CaMKKβ mRNA levels ([5]; LNCaP): increased in a dose-dependent manner | CaMKKβ mRNA levels ([5]; VCaP): increased in a dose-dependent manner

c1cc(-c2cnn3cc(-c4ccc(OCCN5CCCCC5)cc4)cnc23)ccn1 [compound C]
androgen-mediated cell migration ([1]; 1 h pretreatment with compound C (10 or 40 mM), overnight 10 nM R1881): completely abolished androgen-mediated cell migration | AMPK kinase activity (phospho-ACC levels) [6]: inhibited its kinase activity

C[C@@H]1C[C@@H]([C@H](O)CC2CC(=O)NC(=O)C2)C(=O)[C@@H](C)C1 [cycloheximide, Cycloheximide]
expression of secondary androgen target genes (ex. CXCR4) [7]: inhibits the expression of secondary androgen target genes | R1881-mediated increase in CaMKKβ mRNA levels ([5]; LNCaP, 1 h 1 mg/mL cycloheximide, then 10 nM R1881 24 h): did not block

CC(C)C[C@H](NC(=O)[C@@H](COC(C)(C)C)NC(=O)[C@H](Cc1ccc(O)cc1)NC(=O)[C@H](CO)NC(=O)[C@H](Cc1c[nH]c2ccccc12)NC(=O)[C@H](Cc1cnc[nH]1)NC(=O)[C@@H]1CCC(=O)N1)C(=O)N[C@@H](CCCNC(=N)N)C(=O)N1CCC[C@H]1C(=O)NNC(N)=O [goserelin]
incidences of distant metastases [8]: reduced incidences of distant metastases
